These results are taken from patent US8785439B2, “2,5,7-substituted oxazolopyrimidine derivatives” (Sanofi, priority 2010, dated 2014).

In the first test the target is T1, human Edg-1 receptor (Homo sapiens, UniProt P21453).
T1 construct: FLAG (N); expressed in transfected cells; membrane preparation
T1 sequence (P21453 whole entry): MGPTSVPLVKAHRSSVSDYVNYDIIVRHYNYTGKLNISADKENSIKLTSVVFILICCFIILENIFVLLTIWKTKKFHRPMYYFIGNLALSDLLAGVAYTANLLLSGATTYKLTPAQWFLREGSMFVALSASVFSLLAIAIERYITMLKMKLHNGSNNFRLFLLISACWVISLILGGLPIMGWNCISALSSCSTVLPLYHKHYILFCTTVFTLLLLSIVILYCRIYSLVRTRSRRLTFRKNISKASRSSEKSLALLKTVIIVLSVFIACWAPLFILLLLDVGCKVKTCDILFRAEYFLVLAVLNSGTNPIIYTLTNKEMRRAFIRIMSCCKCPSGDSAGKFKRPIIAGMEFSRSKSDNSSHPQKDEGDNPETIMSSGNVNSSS
Kind of test: GTP-γ-S assay using human Edg-1 receptors (SPA, CHO Flp-In cell membrane preparation). Format: biochemical. The note with it: test compound at 10 μM; high control 10 μM S1P regarded as 100% activation; background-corrected; triplicate. The source says:
Determination of the Pharmacological Activity A) GTP-γ-S Assay Using Human Edg-1 Receptors
In order to determine the Edg-1 receptor activation by the compounds of the invention, a GTP-γ-S (guanosine 5′-[γ-thio]triphosphate) assay for G-protein coupled receptor binding based on the scintillation proximity assay principle was used, employing a cell membrane preparation from a CHO Flp-In cell line which constitutively overexpresses the human Edg-1 receptor.
The Flp-In™ expression system (Invitrogen, cat. no. K6010-01) allows the generation of stable mammalian cell lines into which the gene of interest has been integrated through homologous recombination at a specific genomic location called Flp Recombination Target (FRT) site by means of a Flp recombinase encoded by the pOG44 expression plasmid. The integration of the pcDNA5/FRT expression construct into the Flp-In host cell line genome results in the transcription of the gene of interest. The stably transfected cells become hygromycin-resistant.
One day prior to transfection, 200 000 Flp-In-CHO cells were seeded in Ham F-12 medium (Invitrogen, cat. no. 31765) supplemented with 10% fetal calf serum (FCS; Perbio Science, cat. no. SH30068.03) in a 6-well plate and incubated at 37° C./5% CO2 overnight. Using the FuGENE® 6 transfection reagent (Roche, cat. no. 11988387001), cells were cotransfected with the Flp recombinase expression plasmid pOG44 and a modified plasmid additionally containing the edg-1 gene (accession no. NM_001400) termed as pcDNA5-FRT-TO_nFLAG_DEST-EDG-1 with a 9:1 ratio. To obtain the modified pcDNA5-FRT-TO_nFLAG_DEST plasmid, the Invitrogen plasmid pcDNA5/FRT/TO (Invitrogen, cat. no. V6520-20) was adapted to the Gateway® (Invitrogen) cloning system by inserting a Gateway cassette containing attR recombination sites flanking a ccdB gene and a chloramphenicol-resistance gene (Gateway conversion system, Invitrogen, cat. no. 11828-029). In addition a FLAG tag epitope was added before the 5′ att recombination site to allow recombinant expression of N-terminally FLAG-tagged proteins.
For the transfection of one well, 1.08 μg of pOG44 and 0.12 μg of pcDNA5-FRT-TO_nFLAG_DEST-EDG-1 were mixed with 100 μl of serum-free Ham F-12 medium containing 6 μl of FuGENE® 6 transfection reagent. After 20 min of incubation, the transfection reagent/DNA complex was distributed dropwise on the cells. The cells were incubated for 24 h at 37° C. Then the cells from 3 wells each were transferred to a T75 flask (Greiner Cellstar®, cat. no. 658175) containing Ham F-12 medium supplemented with 10% of FCS but without antibiotic and were incubated another 24 h. 48 h after transfection, the medium was replaced by selection medium (Ham F-12 supplemented with 10% of FCS and 300 μg/ml of hygromycin B (Invitrogen, cat. no. 10687-010)). The medium was exchanged every 2 to 3 days until a resistant population of cells had grown. […] After 2 weeks of selection, the cells were transferred into T175 flasks (Greiner Cellstar®, cat. no. 660175) and cultivated for batch production. Cells were harvested from the culture flasks by short treatment (2 to 5 min) with Accutase (PAA, cat. no. L11-007), resuspended in selection medium (see above) and centrifuged at 200×g for 5 min. Cells were resuspended in a mixture of 90% of FCS and 10% of dimethylsulfoxide and stored frozen in liquid nitrogen.
A membrane preparation was obtained by standard methods from the afore-described CHO Flp-In cell line constitutively overexpressing the human Edg-1 receptor. Briefly, the cryopreserved cells were taken in culture and grown until confluency in T175 cell culture flasks (Becton Dickinson, cat. no. 35 5001). […]
On to `CC1(C)OCC(COc2nc(OCC3CC3)c3nc(-c4cccc(F)c4)oc3n2)O1` (stereo not shown) [Example 35], for which the “% Activation (Edg-1 receptor activation in percent of the activation by 10 μM S1P)” value came out at 72%.

The test is the same for the next values; noted with them: test compound at 10 μM; high control 10 μM S1P regarded as 100% activation; background-corrected; triplicate; read-out: % Activation (Edg-1 receptor activation in percent of the activation by 10 μM S1P).
Turning to `Cc1cccc(-c2nc3c(OCC4CC4)nc(SC4CCS(=O)(=O)C4)nc3o2)c1` (stereo not shown) [Example 28, 7-cyclopropylmethoxy-5-(1,1-dioxo-tetrahydro-1lambda6-thiophen-3-ylsulfanyl)-2-(3-methyl-phenyl)-oxazolo[5,4-d]pyrimidine], the activation at 10 µM came out at 69%.
On the same count and under the same terms, to `Cc1cccc(-c2nc3c(OCC4CC4)nc(Oc4ccccc4F)nc3o2)c1` [Example 29, 7-cyclopropylmethoxy-5-(2-fluoro-phenoxy)-2-(3-methyl-phenyl)-oxazolo[5,4-d]pyrimidine] belongs 109%; to `CCOc1nc(Oc2ccccc2F)nc2oc(-c3cc(F)ccc3Cl)nc12` [Example 30, 2-(2-chloro-5-fluoro-phenyl)-7-ethoxy-5-(2-fluoro-phenoxy)-oxazolo[5,4-d]pyrimidine], 134%; to `CCCOc1nc(Oc2ccccc2F)nc2oc(-c3cccc(F)c3)nc12` [Example 31, 5-(2-fluoro-phenoxy)-2-(3-fluoro-phenyl)-7-propoxy-oxazolo[5,4-d]pyrimidine], 80%.
Same read-out and setting: to `Fc1cccc(-c2nc3c(OCC4CC4)nc(Oc4ccccc4F)nc3o2)c1` [Example 32, 7-cyclopropylmethoxy-5-(2-fluoro-phenoxy)-2-(3-fluoro-phenyl)-oxazolo[5,4-d]pyrimidine] belongs 61%; to `CCCOc1nc(Oc2ccccc2)nc2oc(-c3cc(C)ccc3F)nc12` [Example 33, 2-(2-fluoro-5-methyl-phenyl)-5-phenoxy-7-propoxy-oxazolo[5,4-d]pyrimidine], 124%.
Turning to `CC1(C)OCC(COc2nc(OCC3CC3)c3nc(-c4cc(F)ccc4Cl)oc3n2)O1` (stereo not shown) [Example 34, 2-(2-chloro-5-fluoro-phenyl)-7-cyclopropylmethoxy-5-(2,2-dimethyl-[1,3]dioxolan-4-ylmethoxy)-oxazolo[5,4-d]pyrimidine], the activation at 10 µM was found to be 99%.
The same measure, in the same setting: to `Cc1cccc(-c2nc3c(OCC4CC4)nc(OCC4COC(C)(C)O4)nc3o2)c1` (stereo not shown) [Example 36, 7-cyclopropylmethoxy-5-(2,2-dimethyl-[1,3]dioxolan-4-ylmethoxy)-2-(3-methyl-phenyl)-oxazolo[5,4-d]pyrimidine] belongs 78%; to `CCOc1nc(OCC2COC(C)(C)O2)nc2oc(-c3cccc(C)c3)nc12` (stereo not shown) [Example 37, 5-(2,2-dimethyl-[1,3]dioxolan-4-ylmethoxy)-7-ethoxy-2-(3-methyl-phenyl)-oxazolo[5,4-d]pyrimidine], 86%; to `CCCOc1nc(OC2COC2)nc2oc(-c3cccc(C)c3)nc12` [Example 38, 5-(oxetan-3-yloxy)-7-propoxy-2-(3-methyl-phenyl)-oxazolo[5,4-d]pyrimidine], 70%.
Turning to `Cc1cccc(-c2nc3c(OCC4CC4)nc(OC4COC4)nc3o2)c1` [Example 39, 7-cyclopropylmethoxy-5-(oxetan-3-yloxy)-2-(3-methyl-phenyl)-oxazolo[5,4-d]pyrimidine], the activation at 10 µM was found to be 47%.
On the same count and under the same terms, next, `CCCOc1nc(Oc2ccccc2F)nc2oc(-c3cccc(OC)c3)nc12` [Example 40, 5-(2-fluoro-phenoxy)-2-(3-methoxy-phenyl)-7-propoxy-oxazolo[5,4-d]pyrimidine]: 120%; `CCCOc1nc(Oc2cccnc2)nc2oc(-c3cccc(OC)c3)nc12` [Example 41, 2-(3-methoxy-phenyl)-7-propoxy-5-(pyridin-3-yloxy)-oxazolo[5,4-d]pyrimidine]: 102%; `CCCOc1nc(Oc2ccccc2F)nc2oc(-c3cccc(O)c3)nc12` [Example 42, 3-[5-(2-fluoro-phenoxy)-7-propoxy-oxazolo[5,4-d]pyrimidin-2-yl]-phenol]: 130%.
For the molecule `CCCOc1nc(Oc2cccnc2)nc2oc(-c3cccc(O)c3)nc12` [Example 43, 3-[7-propoxy-5-(pyridin-3-yloxy)-oxazolo[5,4-d]pyrimidin-2-yl]-phenol], the activation at 10 µM was 98%.
Still for that read-out and setting: next, `CCCOc1nc(Oc2cccnc2)nc2oc(-c3ccc(Cl)c(Cl)c3)nc12` [Example 44, 2-(3,4-dichloro-phenyl)-7-propoxy-5-(pyridin-3-yloxy)-oxazolo[5,4-d]pyrimidine]: 94%.
Same read-out and setting: next, `CCCOc1nc(OCC2COC(C)(C)O2)nc2oc(-c3ccc(Cl)c(Cl)c3)nc12` (stereo not shown) [Example 45, 2-(3,4-dichloro-phenyl)-5-(2,2-dimethyl-[1,3]dioxolan-4-ylmethoxy)-7-propoxy-oxazolo[5,4-d]pyrimidine]: 74%; `CCOc1nc(Oc2ccccc2F)nc2oc(-c3cc(C)c(OC)c(C)c3)nc12` [Example 46, 7-ethoxy-5-(2-fluoro-phenoxy)-2-(4-methoxy-3,5-dimethyl-phenyl)-oxazolo[5,4-d]pyrimidine]: 102%.
Same read-out and setting: next, `CCOc1nc(Oc2ccccc2F)nc2oc(-c3cc(C)c(O)c(C)c3)nc12` [Example 47, 4-[7-ethoxy-5-(2-fluoro-phenoxy)-oxazolo[5,4-d]pyrimidin-2-yl]-2,6-dimethyl-phenol]: 119%; `CCCOc1nc(O[C@H]2CCCC[C@@H]2F)nc2oc(-c3cccc(F)c3)nc12` [Example 48, 5-((1S,2S)-2-fluoro-cyclohexyloxy)-2-(3-fluoro-phenyl)-7-propoxy-oxazolo[5,4-d]pyrimidine]: 105%; `Cc1cc(-c2nc3c(OC4COC4)nc(Oc4ccccc4F)nc3o2)cc(C)c1OC1COC1` [Example 49, 2-[3,5-dimethyl-4-(oxetan-3-yloxy)-phenyl]-5-(2-fluoro-phenoxy)-7-(oxetan-3-yloxy)-oxazolo[5,4-d]pyrimidine]: 123%.
On to `CCCOc1nc(Oc2cc(F)ccc2C)nc2oc(-c3cccc(C)c3)nc12` [Example 50, 5-(5-fluoro-2-methyl-phenoxy)-7-propoxy-2-(3-methyl-phenyl)-oxazolo[5,4-d]pyrimidine], for which the activation at 10 µM worked out at 107%.
Still for that read-out and setting: to `CCCOc1nc(Oc2ccccc2)nc2oc(-c3cccc(C)c3)nc12` [Example 51, 5-phenoxy-7-propoxy-2-(3-methyl-phenyl)-oxazolo[5,4-d]pyrimidine] belongs 110%.
The same measure, in the same setting: to `CCCOc1nc(Oc2ccc(OC(F)(F)F)c(Cl)c2)nc2oc(-c3cccc(C)c3)nc12` [Example 52, 5-(3-chloro-4-trifluoromethoxy-phenoxy)-7-propoxy-2-(3-methyl-phenyl)-oxazolo[5,4-d]pyrimidine] belongs 51%.
The same measure, in the same setting: to `CCCOc1nc(Oc2ccc(C)cc2C)nc2oc(-c3cccc(C)c3)nc12` [Example 53, 5-(2,4-dimethyl-phenoxy)-7-propoxy-2-(3-methyl-phenyl)-oxazolo[5,4-d]pyrimidine] belongs 73%; to `CCCOc1nc(Oc2ccc(C)c(F)c2)nc2oc(-c3cccc(C)c3)nc12` [Example 54, 5-(3-fluoro-4-methyl-phenoxy)-7-propoxy-2-(3-methyl-phenyl)-oxazolo[5,4-d]pyrimidine], 105%.
On to `CCCOc1nc(Sc2nc(C)cs2)nc2oc(-c3cccc(C)c3)nc12` [Example 55, 5-(4-methyl-thiazol-2-ylsulfanyl)-7-propoxy-2-(3-methyl-phenyl)-oxazolo[5,4-d]pyrimidine], for which the activation at 10 µM is 81%.
